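Method: 48-hour compound exposure of cells in 96-well plates, five concentrations, linear interpolation of endpoints. Here, GI50 denotes the concentration required for 50% inhibition of growth. TGI: concentration producing complete growth inhibition.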

Among the test systems are SN12C renal; HCT-116 colon; KM12 colon; NCI-H226 lung; CCRF-CEM leukemia; HOP-62 NSCLC; SK-MEL-28 melanoma; NCI-H522 lung.
Test in all cases: inhibition of tumour cell growth, NCI panel, 48 h

Regarding `CN(C)c1ccc(/C=N/S(=O)(=O)c2ccc(-n3c(-c4ccccc4)nc4c(Br)cc(Br)cc4c3=O)cc2)cc1`, the GI50 in the assay on SN12C renal is 43.4 µM; with HCT-116 colon, 33.2 µM; in the assay on KM12 colon, 32.3 µM; with NCI-H226 lung it was 53.8 µM; in the assay on CCRF-CEM leukemia it was 3.22 µM; in the assay with HOP-62 NSCLC, 47.7 µM. The GI50 with SK-MEL-28 melanoma is 43.6 µM; in the assay with NCI-H522 lung it was 32.2 µM. Moreover, the TGI in the assay on SN12C renal, in the assay on HCT-116 colon, in the assay on KM12 colon, with NCI-H226 lung, in the assay on CCRF-CEM leukemia and with HOP-62 NSCLC was over 100 µM each time. Further, the TGI in the assay on SK-MEL-28 melanoma is over 100 µM; in the assay with NCI-H522 lung it was over 97 µM.

As for `Cc1ccc(C2NC(=O)c3ccccc3N2)c(C)c1` (configuration not stated), the TGI in the assay on SN12C renal is over 86.5 µM; with HCT-116 colon it was over 100 µM; with KM12 colon it was over 100 µM; in the assay on NCI-H226 lung it was 47.8 µM; with CCRF-CEM leukemia, over 100 µM; in the assay with HOP-62 NSCLC, over 100 µM. Besides, the TGI with SK-MEL-28 melanoma was over 100 µM; in the assay on NCI-H522 lung, 4.91 µM.

`COC1CC(N)C(O)C(C)O1` (configuration not stated): the TGI with SN12C renal, in the assay on HCT-116 colon, in the assay on KM12 colon, in the assay on NCI-H226 lung, in the assay on CCRF-CEM leukemia and in the assay with HOP-62 NSCLC was over 100 µM each time. Moreover, the TGI with SK-MEL-28 melanoma and with NCI-H522 lung was over 100 µM each time.

On to `CC1SC2(CCCCC2)N(NC(=O)c2[nH]c3ccc(Br)cc3c2-c2ccccc2)C1=O` (configuration not stated), for which the GI50 with SN12C renal is 4.66 µM; with HCT-116 colon, 10.2 µM; in the assay on KM12 colon, 16.1 µM; with NCI-H226 lung it was 40.7 µM; in the assay with CCRF-CEM leukemia it was 7 µM; with HOP-62 NSCLC it was 37 µM. Moreover, the GI50 was 56.2 µM in the assay on SK-MEL-28 melanoma and 6.78 µM with NCI-H522 lung. Further, the TGI in the assay with SN12C renal was 30.6 µM; in the assay with HCT-116 colon, over 100 µM; in the assay with KM12 colon, over 100 µM; in the assay with NCI-H226 lung, over 100 µM; in the assay on CCRF-CEM leukemia, over 100 µM; with HOP-62 NSCLC, over 100 µM. Also, the TGI in the assay on SK-MEL-28 melanoma and in the assay with NCI-H522 lung was over 100 µM in each case.

Consider `CCOc1ccc2c(c1)c(CC(=O)O)cn2C`, for which the TGI with SN12C renal, in the assay on HCT-116 colon, in the assay on KM12 colon, in the assay with NCI-H226 lung, with CCRF-CEM leukemia and in the assay on HOP-62 NSCLC was over 100 µM in each case. For the same compound, the TGI in the assay with SK-MEL-28 melanoma and in the assay on NCI-H522 lung was over 100 µM each time.

For the compound `CC1(C)Cc2c(Br)c(Br)c(Br)c(OCC(O)CN3CCN(c4ccccn4)CC3)c2O1` (configuration not stated), the GI50 is 14.4 µM in the assay on SN12C renal; 5.8 µM in the assay on HCT-116 colon; 7.78 µM in the assay with KM12 colon; 15.3 µM in the assay on NCI-H226 lung; 3.81 µM with CCRF-CEM leukemia; 13.2 µM in the assay on HOP-62 NSCLC. The GI50 in the assay with SK-MEL-28 melanoma was 18 µM; in the assay with NCI-H522 lung, 16.8 µM. Further, the TGI in the assay with SN12C renal was 28.4 µM; in the assay on HCT-116 colon it was 23.5 µM; in the assay with KM12 colon, 24.5 µM; with NCI-H226 lung it was 38.2 µM; with CCRF-CEM leukemia, over 100 µM; in the assay on HOP-62 NSCLC, 27.7 µM. In addition, the TGI in the assay with SK-MEL-28 melanoma turned out to be 32.7 µM; with NCI-H522 lung it was 35.5 µM.

On to `CCSC[C@@H]1C[C@](O)(c2ccc(F)cc2)[C@@H](c2ccc(F)cc2)O1`, for which the GI50 was 17.9 µM in the assay with SN12C renal; 12.1 µM in the assay on HCT-116 colon; 19.4 µM with KM12 colon; 17.8 µM with NCI-H226 lung; 12.5 µM in the assay on CCRF-CEM leukemia; 18.2 µM in the assay with HOP-62 NSCLC. Besides, the GI50 is 18.3 µM in the assay on SK-MEL-28 melanoma and 18.4 µM in the assay with NCI-H522 lung. For the same compound, the TGI with SN12C renal came out at 33.3 µM; in the assay with HCT-116 colon it was 29.2 µM; in the assay on KM12 colon, 41.3 µM; with NCI-H226 lung it was 38.8 µM; in the assay on CCRF-CEM leukemia it was 30.2 µM; in the assay with HOP-62 NSCLC, 33.4 µM. Besides, the TGI amounted to 33.3 µM with SK-MEL-28 melanoma and 49.3 µM in the assay with NCI-H522 lung.

In the case of `CC(=O)Nc1n[n+]([O-])c2cc(C)ccc2[n+]1[O-]`, the TGI was 18.8 µM in the assay with SN12C renal; 13.5 µM in the assay on HCT-116 colon; 11.3 µM in the assay with KM12 colon; 27.8 µM with NCI-H226 lung; over 47.4 µM with CCRF-CEM leukemia; 11.4 µM in the assay with HOP-62 NSCLC. In addition, the TGI turned out to be 44.2 µM with SK-MEL-28 melanoma and 5.53 µM in the assay with NCI-H522 lung.

`COc1ccc(-c2csc(NC(=O)CN3CCN(c4cc5c(cc4F)c(=O)c(C(=O)O)cn5C4CC4)CC3)n2)cc1`: the GI50 was 3.37 µM in the assay on SN12C renal; 3.1 µM with HCT-116 colon; 3.37 µM in the assay with KM12 colon; 4.96 µM in the assay on NCI-H226 lung; 3.59 µM with CCRF-CEM leukemia; 3.59 µM in the assay on HOP-62 NSCLC. Besides, the GI50 is 3.72 µM in the assay with SK-MEL-28 melanoma and 3.48 µM with NCI-H522 lung. In addition, the TGI is over 100 µM with SN12C renal; over 100 µM with HCT-116 colon; over 100 µM in the assay on KM12 colon; over 100 µM in the assay on NCI-H226 lung; over 100 µM in the assay with CCRF-CEM leukemia; 26.1 µM with HOP-62 NSCLC. In addition, the TGI in the assay with SK-MEL-28 melanoma and in the assay on NCI-H522 lung was over 100 µM in each case.

The values are drawn from PubChem BioAssay (NCI).
